Laboratory results: patent publication US20250197671A1, “IRRADIATION-CROSSLINKABLE SILICONE COMPOSITION COMPRISING PT(OCTANE-2,4-DIONE)2 AS A CATALYST” (ELKEM SILICONES FRANCE SAS, priority 2022, published 2025)
Like-named read-outs stand apart in the source and are kept apart here.

Columns and labels:
[1] = Photo-DSC of silicone composition (time and value of thermal peak); settings: 365 nm, 14.4 mW/cm^2, 10 ppm Pt, N2 purge
[2] = Solubility / appearance of catalyst in the silicone composition; settings: Photo-DSC formulation, organopolysiloxane A + B, 10 ppm Pt (Example 3)
[3] = Solubility of the catalyst in hexamethyldisiloxane (HMDSO); assay type: physicochemical
Excerpt: Continue additions until obtaining a clear medium, without observing precipitate at the end of stirring.

[4] = Crosslinking time of silicone composition under UV LED irradiation (catalyst activity); settings: UV LED 365 nm, 10 ppm Pt, SiH/Si(vinyl)=2:1, bulk setting time
Procedure: Irradiation: UV LED lamp with a wavelength of 365 nm.
The crosslinking time is measured. It corresponds to the bulk setting time of the system (the bar magnet can no longer stir the system).

[5] = test system: Escherichia coli WP2 (uvrA-) (pKM 101); test: Ames test (OECD test 471, Bacterial Reverse Mutation Test); assay type: cell-based; settings: with or without metabolic activation; 5000, 1500, 150 and 50 μg/plate
Procedure: (§1) In fact, this compound was analyzed according to the Ames test: the Ames test is a widely used method which uses bacteria for verifying whether a given chemical product may cause DNA mutations in the tested organism.
(§2) Toxicity test (Ames Test, according to the OECD guidelines for chemical product tests-test 471: Bacterial Reverse Mutation Test): Solutions were prepared with Pt(octane-2,4-dione)2.

[6] = test system: Salmonella typhimurium TA 1535, TA 1537, TA 98, TA 100; test: as above; assay type: cell-based; settings: with or without metabolic activation; 5000, 1500, 150 and 50 μg/plate
Procedure: as §1, §2

[7] = Stability of the catalysed silicone solution without irradiation; assay type: physicochemical; settings: with organopolysiloxanes A and B, 10 ppm Pt
Procedure: A solution comprising a catalyst C1 or C5, together with organopolysiloxanes A and B was prepared according to example 2 (concentration in metal Pt of 10 ppm).
The stability of the solutions was then determined.

[8] = H361-CMR Reproductive Toxicity Category 2; cited from earlier work

| Compound | Time to arrive at the thermal peak [1] | Value of the thermal peak (mW/s) [1] | Appearance [2] | other results |
| --- | --- | --- | --- | --- |
| trans Pt(octane-2,4-dione)2 [C1 Trans] | 140 s | 0.78 mW/s | Soluble clear | – |
| CCC(=O)C=C(CC)[O][Pt][O]C(=CC(=O)CC)CC [Catalyst C3, Pt(heptane-3,5-dione)2] | 240 s | 0.53 mW/s | Clear yellow | Solubility [3]: 2500 ppm Pt |
| Pt(octane-2,4-dione)2 [C1 Trans:cis ratio = 11:89] | – | – | – | Crosslinking time [4]: 1 min |
| Pt(octane-2,4-dione)2 [Catalyst C1] | – | – | – | mutagenic modification (Ames test) [5]: did not induce any mutagenic modification; mutagenic modification (Ames test) [6]: did not induce any mutagenic modification; Solubility [3]: 7000 ppm Pt; time solution remained stable ([7]; exposed to ambient light): over 7 hours; time solution remained stable ([7]; protected from light): over 20 days |
| CC(=O)/C=C(/C)O.CC(=O)/C=C(/C)O.[Pt] [Catalyst C2, Pt(acac)2] | 140 s | 0.65 mW/s | – | reproductive toxicity classification [8]: suspected of damaging fertility or the unborn child |
| cis-Pt(octane-2,4-dione)2 [C1 Cis] | 140 s | 0.85 mW/s | Soluble clear | – |
| CCC(=O)C=C(C)[O][Pt][O]C(C)=CC(=O)CC [Catalyst C4, Pt(hexane-2,4-dione)2] | 235 s | 0.47 mW/s | Hazy yellow | Solubility ([3]; in hexamethyldisiloxane (HMDSO) at 20° C.): 500 ppm Pt |
